From patent US20130316998A1, “METHOD FOR TREATING PANCREATIC CANCER” (Niiki Pharma Acquisition Corp. 2, priority 2010, published 2013)

Tests used:
[1] = system: advanced-stage pancreatic cancer; conditions: erlotinib in combination with gemcitabine; Moore et al. 2007; cited from earlier work
[2] = system: PANC-1 cells; conditions: Guo et al. 2009; Durkin et al. 2003; cited from earlier work
[3] = system: pancreatic tumor cell line MIA PaCa2; experiment: MTT assay in 3-dimentional tumor model (HuBiogel) derived from MIA PaCa2; assay type: cell-based; conditions: 3-D HuBiogel tumor beads
Protocol: (§1) The compound tris(8-quinolinolato)gallium(III) was tested in a 3-dimentional tumor model derived from pancreatic tumor cell line MIA PaCa2. Specifically, cells were trypsinized, washed, counted by trypan blue exclusion. Tumor beads were then prepared by mixing 20,000 cells/100 of HuBiogel (4 mg/mL) (See U.S. patent application Ser. No. 10/546,506, which is incorporated herein by reference). The 3-D tumor beads were cultivated for 72 hours in multi-well plates with complete media (10% FBS) in a 37° C. incubator +5% CO2. Mini-tumors were treated with various concentrations of the test compound tris(8-quinolinolato)gallium(III) in media (final 0.2-0.3% DMSO) or control (DMSO). Repeated drug treatment was done by removing the culture media and replacing with fresh media with drug compound or DMSO. On Day 3, MTT assay and live-cell staining with Calcein AM were performed (5 beads/assay set).
(§2) Statistical analysis of data sets (Average, T-test, GI-50) was performed using MS-Excel program. The average GI-50 (the drug concentration required for growth inhibition at 50%) is […].

[4] = system: Capan-1 cell line; experiment: ATCC's MTT Cell Proliferation Assay, Capan-1; assay type: cell-based, human; conditions: Capan-1, 72 hours post-treatment
Protocol: (§3) To test the activities of tris(8-quinolinolato)gallium(III), ATCC's MTT Cell Proliferation Assay® was performed using human pancreatic cancer cell lines PANC-1, BxPC-3, and Capan-1. Stock cultures were allowed to grow to 70-80% confluence for this study. The anti-proliferative activity of tris(8-quinolinolato)gallium(III), against the indicated cell lines was evaluated in vitro using the ATCC's MTT Cell Proliferation Assay (Catalog No. 30-1010K). PANC-1 was grown using DMEM, 10% fetal bovine serum (FBS), 1% of pen/strep/glutamine (PSG) and was seeded with 6E+03 cells/well. […] The plates were left overnight at room temperature in the dark and was read on a plate reader using SoftMax® Pro (version 5.2, Molecular Devices).
(§4) The absorbance data was analyzed as follows: Absorbance values were converted to Percent of Control and plotted against test agent concentrations for IC50 calculations using SoftMax® Pro (version 5.2, Molecular Devices). […] Percent of Control values were calculated by dividing the absorbance values for each test well by the No Drug Control average (column 11 values; cells+vehicle control) and multiplying by 100. Plots of Compound Concentration versus Percent of Control were analyzed using the 4-parameter equation to obtain IC50 values and other parameters that describe the sigmoidal dose response curve. […]

[5] = system: pancreatic tumor cell line MIA PaCa2; experiment: live-cell staining with Calcein AM / image analysis in 3-D tumor beads; assay type: cell-based; conditions: 3-D HuBiogel tumor beads, Day 3
Protocol: as §1, §2

[6] = system: BxPC-3 cell line; experiment: ATCC's MTT Cell Proliferation Assay, BxPC-3; assay type: cell-based, human; conditions: BxPC-3, 72 hours post-treatment
Protocol: as §3, §4

[7] = system: PANC-1 cell line; experiment: ATCC's MTT Cell Proliferation Assay, PANC-1; assay type: cell-based, human
Protocol: as §3, §4

Compound | median overall survival benefit [1] | resistance of PANC-1 cells to the drug [2] | GI50 ([3]; MTT assay on Day 3, read-out: average GI-50 (the drug concentration required for growth inhibition at 50%)) | tumor proliferation activity ([3]; MTT assay, FIG. 1) | IC50 [4] | tumor killing in live-cell staining/image analysis [5] | IC50 [6] | activity in pancreatic cancer cells resistant to gemcitabine and/or erlotinib ([7]; PANC-1) | IC50 ([7]; PANC-1, 72 hours post-treatment, MTT)
C#Cc1cccc(Nc2ncnc3cc(OCCOC)c(OCCOC)cc23)c1 [erlotinib] | less than four weeks | resistant | – | – | – | – | – | – | –
Nc1ccn([C@@H]2O[C@H](CO)[C@@H](O)C2(F)F)c(=O)n1 [gemcitabine] | – | resistant | – | – | – | – | – | – | –
[Ga+3].[O-]c1cccc2cccnc12.[O-]c1cccc2cccnc12.[O-]c1cccc2cccnc12 [tris(8-quinolinolato)gallium(III)] | – | – | 35.7 µM | significantly inhibited tumor proliferation activity | 8.17 µM | dose-dependent tumor killing | 0.0032 µM | active | 1.03 µM
